The experiment in a line: In vitro inhibition of EGF-stimulated DNA synthesis of ER 22 cells by following the incorporation of methyl-[3H]thymidine.
As a reminder, the IC50 is the concentration needed to halve the response being measured. A higher IC50 goes with weaker potency in that assay. For `COCOc1cc(-c2ccccc2)ccc1-c1ccc(C(=O)NCc2ccccc2)cc1` [2'-Methoxymethoxy-[1,1';4',1'']terphenyl-4-carboxylic acid benzylamide], it took 1.1 µM to reach half-maximal inhibition (IC50).

As for `COCOc1cc(C(C)(C)C)ccc1-c1ccc(C(=O)OC)cc1` [4'-tert-Butyl-2'-methoxymethoxy-biphenyl-4-carboxylic acid methyl ester], the IC50 stood at 10 µM.

Compound `COCOc1cc(-c2ccccc2)ccc1-c1ccc(C(=O)O)cc1` yielded an IC50 of 10 µM.

In turn, `COC(=O)c1ccc(-c2cccc(-c3ccccc3)c2O)cc1` [2'-Hydroxy-[1,1';3',1'']terphenyl-4-carboxylic acid methyl ester] came in with an IC50 above 5 µM.

`CC(COC(=O)c1ccc(-c2cc(O)cc(-c3ccccc3)c2)cc1)CC(C)(C)C` (stereo not given) showed an IC50 above 5 µM.

In turn, `COC(=O)c1ccc(-c2ccc(C(C)(C)C)cc2O)cc1` yielded an IC50 above 5 µM.

`CC(C)(C)c1cc(O)cc(-c2ccc(C(=O)O)cc2)c1` [3'-tert-Butyl-5'-hydroxy-biphenyl-4-carboxylic acid] came in with a half-maximal inhibitory concentration (IC50) above 20 µM.

Regarding `O=C(NCc1ccccc1)c1ccc(-c2cc(O)cc(-c3ccccc3)c2)cc1`, the IC50 turned out to be 8 µM.

`CC(COC(=O)c1ccc(-c2cc(O)cc(C(C)(C)C)c2)cc1)CC(C)(C)C` (stereo not given) registered an IC50 above 5 µM.

`COCOc1c(-c2ccccc2)cccc1-c1ccc(C(=O)OCC(C)CC(C)(C)C)cc1` (stereo not given) had an IC50 above 10 µM.

`COCOc1cc(-c2ccccc2)ccc1-c1ccc(C(=O)OC)cc1` showed an IC50 above 5 µM.

`O=C(O)c1ccc(-c2cc(O)cc(-c3ccccc3)c2)cc1`: the IC50 is 10 µM.

Regarding `CC(COC(=O)c1ccc(-c2cccc(-c3ccccc3)c2O)cc1)CC(C)(C)C` (stereo not given), the IC50 was above 10 µM.

As for `CC(C)(C)c1cc(O)cc(-c2ccc(C(=O)NCc3ccccc3)cc2)c1` [3'-tert-Butyl-5'-hydroxy-biphenyl-4-carboxylic acid benzylamide], the IC50 was 5.4 µM.

For the compound `O=C(NCc1ccccc1)c1ccc(-c2ccc(-c3ccccc3)cc2O)cc1` [2'-Hydroxy-[1,1';4',1'']terphenyl-4-carboxylic acid benzylamide], the half-inhibitory concentration (IC50) amounted to 1.4 µM.

(Values after BindingDB's records for doi:10.1021/jm00023a009 (University of Paris, 1995).)
